System: allergic rhinitis and asthma
Assay: Treatment of human patients with allergic rhinitis and/or asthma with daily atomoxetine (case reports, Examples 1-4)
Format: in vivo, humans
Experimental: A person with a 24 year history of severe allergic rhinitis, immunotherapy failure, and a 10 year history of moderate persistent asthma was given a 100 mg daily dose of atomoxetine. […]
Here, as is known in the art, FEV1 percent is the ratio of FEV1 to the predicted FEV1, which is obtained from standardized tables based on age, weight, height, and sex; FEV1 is the volume of air that is forcefully exhaled from the lungs in one second.

[1] = Example 3: person, allergic rhinitis, 80 mg daily dose

CNCC[C@@H](Oc1ccccc1C)c1ccccc1.Cl [atomoxetine, (R)-(−)-N-methyl-3-(2-methylphenoxy)-3-phenylpropylamine]
symptom status on atomoxetine mono therapy (Example 1: person, 60 mg daily dose, monitored during the following year): remained symptom free during the entire period of monitoring | time until able to wean all traditional allergic rhinitis and asthma treatments (Example 1: person, allergic rhinitis and moderate persistent asthma, 60 mg daily dose): three | symptom status on atomoxetine mono therapy (Example 2: person, 100 mg daily dose, monitored during the following 10 months): remained symptom free during the entire period of monitoring | time until able to wean all traditional allergic rhinitis and asthma treatments (Example 2: person, severe allergic rhinitis and moderate persistent asthma, 100 mg daily dose): ≤ 10 days | time remained symptom free with atomoxetine mono therapy [1]: at least nine | time until able to wean all traditional allergic rhinitis treatments [1]: ≤ 7 days | time remained symptom free with atomoxetine mono therapy (Example 4: person, 80 mg daily dose): at least 7 months | FEV1 percent (ratio of FEV1 to predicted FEV1), pulmonary function test (Example 4: person, 80 mg daily dose, after 6 weeks of atomoxetine mono therapy, 68% on traditional treatments before): 93% | time until able to wean all traditional allergic rhinitis and asthma treatments (Example 4: person, allergic rhinitis and moderate persistent asthma, 80 mg daily dose): ≤ 10 days
